Read-outs that look alike come from different tables or passages of the source. Numbered stars: 1 amine (or outer) side, 2 acyl side, 3 side chain; on linkers, the order of the positions; unused ones are H or OH. Bridge positions count the residues as written; N and C are the ends. Ends that are not written are not given here. Peptide text beside a SMILES is read from it. X2 = CN(CC(=O)O)c1nc(CC[*:1])nc(CC[*:2])n1; X1 = Nc1nc(CC[*:1])cc(CC[*:2])n1
Legend:
[1] = target: monomeric version of RAD51 (HumRadA22) (Pyrococcus furiosus, UniProt O74036); assay: Fluorescence polarisation (FP) competition assay: displacement of fluorescein-labelled BRC4 repeat; assay type: binding, archaeal RadA mutant with human Rad51 surface residues; settings: 100 nM HumRadA22, 10 nM BRC4-fluorescein, KD calculated from IC50, single titration, three technical replicates per point
Description: We prepared all stapled peptides from small-scale bacterial cultures as GB1/C-His8 fusions and cyclised them with the DVT linker. For peptides SP10, SP11, SP12 and SP15, correct stapling was confirmed by MS, showing a similar composition to SP2 (Fig. S15–S18 ^†). Thus, we confirm that the pseudo-dilution approach is robust in yielding almost exclusively the cyclised product, irrespective of whether a helical or non-helical motif is being constrained. To examine the effect of introducing a covalent staple on affinity, a mock reaction was done in parallel for each peptide by splitting the IMAC elution into two halves and adding DMSO to the mock control instead of the linker. TCEP (500 μM) was included in the mock reaction to maintain the peptide in linear form by preventing disulfide formation. The peptides were tested in a fluorescence polarisation (FP) assay monitoring the displacement of a fluorescently-labelled BRC4 repeat from a monomeric version of RAD51 (HumRadA22), as reported previously.[25] […]
Fluorescence polarisation competition assay
FP competition assay was a modified version of a protocol described previously. Fluorescein-labelled HsBRC4 probe for this assay was kindly provided by Dr Laurens Lindenburg (Hollfelder group, Department of Biochemistry, University of Cambridge). Black 384-well flat-bottom microplates (Corning, 3821) were used with a 40 μl final reaction volume in all measurements. Following buffer conditions were used: 20 mM CHES pH 9.5, 150 mM NaCl, 0.1% BSA, 0.1% Tween-20. Each reaction contained 100 nM HumRadA22 and 10 nM BRC4-fluorescein. Two-fold serial dilutions of stapled peptides were added to the reactions. A free probe control reaction containing only 10 nM BRC4-fluorescein was used to calibrate gain and focal height. FP measurements were performed on Pherastar FX or Clariostar Plus (BMG Labtech) plate readers equipped with an FP 485-520-520 optic modules. Binding curves were fitted using the four-parameter logistic model with a variable Hill slope using Prism software (Graphpad). Regression fitting was performed using the least squares optimisation algorithm.
KD values were estimated from the fitted IC 50 parameters using a previously reported

HumRadA22 = HumRadA22 (Pyrococcus furiosus, UniProt O74036); assay: Isothermal titration calorimetry (ITC) of peptide binding; parameters: species or system archaeal RadA mutant with human Rad51 surface residues; settings: read-out: ITC KD; free peptides; 20 mM CHES pH 9.5, 150 mM NaCl, 0.1% Tween-20; 25°C; single-site binding model
Protocol: We then evaluated the binding of free peptides to HumRadA22 using FP competition assay and isothermal titration calorimetry (Table 1 and Fig. 3B and C). […] All three peptides SP2, SP24 and SP30 bound with similar low-nanomolar affinities in ITC, and the binding appears to be slightly weaker relative to the linear BRC8-2 template (Fig. 3C).
(§1) Isothermal titration calorimetry
(§2) Peptides were resuspended in MilliQ water to 10 times the desired final concentration.
This was then diluted 10x with the ITC buffer to obtain the final titrant solution (20 mM CHES pH 9.5, 150 mM NaCl, 0.1% Tween-20). HumRadA22 was buffer-exchanged on a NAP-5 desalting column (Cytiva) into ITC buffer and protein concentration was adjusted to 10:9 of the desired final value. […]
(§3) Dried peptides were dissolved in MilliQ water to 0.3 mg/ml, and then two-fold diluted in 20 mM sodium phosphate, pH 7.4, giving a final solution of 0.15 mg/ml peptide in 10 mM sodium phosphate. CD spectra of selected peptides were recorded on an AVIV 410 circular dichroism spectropolarimeter using a 1 mm path length quartz cuvette. […]
(§4) The ability of linear and stapled BRC repeat peptides to dissociate RAD51-ssDNA nucleofilament was evaluated using an electrophoretic mobility shift assay (EMSA). […]

[2] = system: RAD51:dT60 nucleoprotein filament (full-length human RAD51); assay: Electrophoretic mobility shift assay (EMSA) of nucleoprotein filament disruption; assay type: biochemical; settings: 5 μM full-length human RAD51, 100 nM FAM-dT60, varying peptide concentrations; 50 mM HEPES pH 7.4, 1 mM ATP
Protocol: We evaluated the effect of stapled peptides SP2, SP24 and SP30 on the nucleoprotein filament using electrophoretic mobility shift assay (EMSA, Fig. 3D). A fluorescently labelled dT60 oligonucleotide was incubated with full-length RAD51, after which the peptides were added at different concentrations before separating the products on a polyacrylamide gel.
as §1, §2
This was then diluted 10x with the ITC buffer to obtain the final titrant solution (20 mM CHES pH 9.5, 150 mM NaCl, 0.1% Tween-20). HumRadA22 was buffer-exchanged on a NAP-5 desalting column (Cytiva) into ITC buffer and protein concentration was adjusted to 10:9 of the desired final value. One ninth volume of MilliQ water was added to the solution to bring the protein concentration to the desired final value, while maintaining identical buffer:MilliQ volume proportions in both the syringe and the cell. ITC was carried out using a Microcal ITC200 or Malvern PEAQ ITC instruments at 25°C with a 5.00 μCal reference power DP value, stirring speed of 500-750 rpm, 2 sec filter period. Injection spacing, speed and volume, cell/syringe concentrations as well as the number of injections were adjusted for each peptide and its binding properties. ITC data were fitted using a single-site binding model using the Microcal ITC data analysis program in the Origin 7.0 package. Data points affected by baseline spikes were omitted from the analysis.
Circular dichroism spectroscopy
as §3, §4

[3] = stapled product (linker DVT or DVP as in Table 1), 20 mM CHES pH 9.5, 150 mM NaCl, 0.1% BSA, 0.1% Tween-20, read-out: FP competition KD, nM, Stapled
[4] = unstapled linear form, mock reaction with DMSO instead of linker plus TCEP, 20 mM CHES pH 9.5, read-out: FP competition KD, nM, Unstapled

Compound | Kd ([1]; read-out: FP competition KD, nM, Stapled, stapled product (linker DVT or DVP as in Table 1), 20 mM CHES pH 9.5, 150 mM NaCl, 0.1% BSA, 0.1% Tween-20) | Kd (HumRadA22) | Depolymerisation of RAD51 from single-stranded DNA (EMSA) [2] | Kd [1, 3] | Kd [1, 4]
CC(C)C[C@@H]1NC(=O)[C@H](C)NC(=O)[C@H](CCC(N)=O)NC(=O)[C@@H](NC(=O)[C@H](CO)NC(=O)[C@@H](NC(=O)[C@H](CC(N)=O)NC(=O)[C@H](CC(C)C)NC(=O)[C@H](CCCCN)NC(=O)[C@H](CCCCN)NC(=O)CNC(=O)[C@H](CO)NC(=O)[C@H](C)NC(=O)[C@@H](NC(=O)[C@H](CO)NC(=O)[C@H](Cc2ccccc2)NC(=O)CNC(=O)[C@H](CO)NC(=O)CN)[C@@H](C)O)C(C)C)CSCCc2cc(nc(N)n2)CCSC[C@@H](C(=O)N[C@@H](CCCCN)C(=O)N[C@@H](CC(C)C)C(=O)N[C@@H](Cc2ccccc2)C(=O)N[C@@H](CO)C(=O)NCC(=O)O)NC(=O)[C@H](C)NC(=O)[C@H](CCCCN)NC(=O)[C@H](CCC(N)=O)NC1=O [SP24] (H-GSGFSTASGKKLNVSCQALQKACKLFSG-OH; linker 16-23 via X1) | 13 nM | 21 nM | depolymerise RAD51 from single-stranded DNA to similar extent |  | 
ACGFSTASGKKLNVSCEALQKAVKLFSDIENIS (also: sidechain bridge or staple (positions not given here)) [GB1-SP10, GB1/C-His8 fusion peptide stapled with DVT; unstapled column is its linear mock control] |  |  |  | 27 nM | 35 nM
ACSGFSTASGKKLNCS (also: sidechain bridge or staple (positions not given here)) [GB1-SP16, GB1/C-His8 fusion peptide stapled with DVT; unstapled column is its linear mock control] |  |  |  | > 500 nM | > 500 nM
H-GSVNSSAFSGFSTASGKKLNVSCEALQKACKLFSDIENISGSS-OH (linker 23-30 via X2) [SP2] |  |  | depolymerise RAD51 from single-stranded DNA to similar extent |  | 
SCEALQKACKLFSDIENIS (also: sidechain bridge or staple (positions not given here)) [GB1-SP1, GB1/C-His8 fusion peptide stapled with DVT; unstapled column is its linear mock control] |  |  |  | > 500 nM | > 500 nM
SCFSTASGKKLNVSCEALQKAVKLFSDIENIS (also: sidechain bridge or staple (positions not given here)) [GB1-SP11, GB1/C-His8 fusion peptide stapled with DVT; unstapled column is its linear mock control] |  |  |  | 36 nM | 29 nM
SSACSGFSTASGKKLNVSTEACQKAVKLFSDIENIS (also: sidechain bridge or staple (positions not given here)) [GB1-SP12, GB1/C-His8 fusion peptide stapled with DVT; unstapled column is its linear mock control] |  |  |  | 14 nM | 50 nM
VNCSAFSGFSTASGKKLCVS (also: sidechain bridge or staple (positions not given here)) [GB1-SP14, GB1/C-His8 fusion peptide stapled with DVT; unstapled column is its linear mock control] |  |  |  | > 500 nM | > 500 nM
VNCSAFSGFSTASGKKLNVSTEALCKAVKLFSDIENIS (also: sidechain bridge or staple (positions not given here)) [GB1-SP13, GB1/C-His8 fusion peptide stapled with DVT; unstapled column is its linear mock control] |  |  |  | 28 nM | 21 nM
VNSSAFSGFCTASGKKLNVSCEALQKAVKLFSDIENIS (also: sidechain bridge or staple (positions not given here)) [GB1-SP7, negative control GB1/C-His8 fusion peptide stapled with DVT; unstapled column is its linear mock control] |  |  |  |  | 39 nM
VNSSAFSGFSTASGKKLNVSCEALQKACKLFSDIECIS (also: sidechain bridge or staple (positions not given here)) [GB1-SP15, GB1/C-His8 fusion peptide stapled with DVT; unstapled column is its linear mock control] |  |  |  | 13 nM | 15 nM
VNSSAFSGFSTASGKKLNVSCEALQKACKLFSDIENIS (also: sidechain bridge or staple (positions not given here)) [GB1-SP2, GB1/C-His8 fusion peptide stapled with DVT; unstapled column is its linear mock control] |  |  |  | 15 nM | 6 nM
VNSSAFSGFSTASGKKLNVSTCALQKAVCLFSDIENIS (also: sidechain bridge or staple (positions not given here)) [GB1-SP8, GB1/C-His8 fusion peptide stapled with DVT; unstapled column is its linear mock control] |  |  |  | 29 nM | 45 nM
VNSSAFSGFSTASGKKLNVSTEALCKAVKLFCDIENIS (also: sidechain bridge or staple (positions not given here)) [GB1-SP9, GB1/C-His8 fusion peptide stapled with DVT; unstapled column is its linear mock control] |  |  |  | 51 nM | 57 nM
VNSSAFSGFSTASGKKLNVSTEALQKAVKLFSDIENIS [GB1-BRC8-2, linear BRC8-2 template as GB1/C-His8 fusion] |  |  |  |  | 11 nM

Source: article PMC10699557, “A recombinant approach for stapled peptide discovery yields inhibitors of the RAD51 recombinase” (Chemical Science, 2023)
